# Earlier results in US5346693A, “Depigmenting cosmetic or dermatological composition containing arbutoside derivatives” (L'Oreal, priority 1991, dated 1994).
# Test system: melanocyte
structure (smiles),measurement,value
Oc1ccc(O)cc1 [hydroquinone],cytotoxicity to the melanocyte,cytotoxic to the melanocyte
